≈ marks a conversion by molar mass, not a printed value. Where a SMILES comes first, the peptide text is derived from it. [ ]: non-standard residue; d: D form.
Tests used:
MDREC 1238 = type: cell-based, Escherichia coli
In short: (§1)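 MIC read-out = lowest peptide level with no bacterial proliferation. Strains diluted in MH medium to 2×10^6 CFU; peptide twofold serial dilutions in MH added 1:1 in microtiter wells.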

MDRAB 12035 [1] = experiment: MIC of antibiotic during combined treatment with antimicrobial peptide; type: cell-based, Acinetobacter baumannii
In short: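 Antibiotic MIC came from antibiotic dilutions added to bacteria (2×10^6 CFU/ml, MH medium) already combined with peptide serially diluted 2:1 from its own MIC. Swapping the roles of the two agents gave the peptide MIC.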

S. epidermidis = experiment: microbe, parasite or virus in culture; type: cell-based, Staphylococcus epidermidis
In short: as §1

S. typhimurium = experiment: microbe, parasite or virus in culture; type: cell-based, Salmonella typhimurium
In short: as §1

MDRPA 2003 = type: cell-based, Pseudomonas aeruginosa
In short: as §1

MDRPA 2002 = type: cell-based, Pseudomonas aeruginosa
In short: as §1

P. aeruginosa = experiment: microbe, parasite or virus in culture; type: cell-based, Pseudomonas aeruginosa
In short: as §1

MDRST 8009 = type: cell-based, Salmonella typhimurium; details: agent alone
In short: as §1

A. baumannii = experiment: microbe, parasite or virus in culture; type: cell-based, Acinetobacter baumannii; details: for Antibacterial activity relative to PapMA-1: A. baumannii and S. typhimurium
In short: as §1

MDRAB 12035 [2] = experiment: microbe, parasite or virus in culture; type: cell-based, Acinetobacter baumannii
In short: as §1

[3] = tested on: multi-drug resistant bacteria; experiment: MIC, summary statements for multi-drug resistant bacteria; type: cell-based
In short: as §1

MRSA 3114 = type: cell-based, Staphylococcus aureus; details: 3114
In short: as §1

MRSA 3126 = type: cell-based, Staphylococcus aureus; details: 3126
In short: as §1

[4] = peptide treatment concentration 1 μg/ml
[5] = peptide treatment concentration 2 μg/ml
[6] = peptide treatment concentration 4 μg/ml
[7] = peptide treatment concentration 6 μg/ml
[8] = peptide treatment concentration 8 μg/ml
[9] = peptide treatment concentration 16 μg/ml
[10] = peptide treatment concentration 32 μg/ml
[11] = peptide treatment concentration 64 μg/ml

Row | Structure (SMILES) | Minimal inhibitory concentration MIC (MDREC 1238) | Erythromycin MIC during combined treatment with peptide (MDRAB 12035 [1]; [4]) | Linezolid MIC during combined treatment with peptide (MDRAB 12035 [1]; [4]) | Vancomycin MIC during combined treatment with peptide (MDRAB 12035 [1]; [4]) | Erythromycin MIC during combined treatment with peptide (MDRAB 12035 [1]; [5]) | Linezolid MIC during combined treatment with peptide (MDRAB 12035 [1]; [5]) | Vancomycin MIC during combined treatment with peptide (MDRAB 12035 [1]; [5]) | Erythromycin MIC during combined treatment with peptide (MDRAB 12035 [1]; [6]) | Linezolid MIC during combined treatment with peptide (MDRAB 12035 [1]; [6]) | Vancomycin MIC during combined treatment with peptide (MDRAB 12035 [1]; [6]) | Erythromycin MIC during combined treatment with peptide (MDRAB 12035 [1]; [7]) | Linezolid MIC during combined treatment with peptide (MDRAB 12035 [1]; [7]) | Vancomycin MIC during combined treatment with peptide (MDRAB 12035 [1]; [7]) | Erythromycin MIC during combined treatment with peptide (MDRAB 12035 [1]; [8]) | Linezolid MIC during combined treatment with peptide (MDRAB 12035 [1]; [8]) | Vancomycin MIC during combined treatment with peptide (MDRAB 12035 [1]; [8]) | Erythromycin MIC during combined treatment with peptide (MDRAB 12035 [1]; [9]) | Linezolid MIC during combined treatment with peptide (MDRAB 12035 [1]; [9]) | Vancomycin MIC during combined treatment with peptide (MDRAB 12035 [1]; [9]) | Erythromycin MIC during combined treatment with peptide (MDRAB 12035 [1]; [10]) | other results
1 | CC[C@H](C)[C@H](NC(=O)[C@H](CCCCN)NC(=O)[C@H](Cc1c[nH]c2ccccc12)NC(=O)[C@@H](N)CCCNC(=N)N)C(=O)N[C@@H](Cc1ccccc1)C(=O)N[C@@H](CCCCN)C(=O)N[C@@H](CCCCN)C(=O)N[C@H](C(=O)N[C@H](CC(C)C)C(=O)N[C@@H](CCCCN)C(=O)N[C@@H](CC(C)C)C(=O)N[C@@H](CC(C)C)C(=O)N[C@@H](Cc1c[nH]cn1)C(=O)N[C@@H](CCC(=O)O)C(=O)N[C@@H](Cc1ccccc1)C(=O)N[C@@H](CCCCN)C(=O)N[C@@H](CCCCN)C(=O)N[C@@H](Cc1ccccc1)C(N)=O)[C@@H](C)CC [PapMA-23, RWK IFK KIl KLL HEF KKF-NH2] (H-RWKIFKKI[dL]KLLHEFKKF-NH2; N-terminus assumed) | 32 µg/mL (≈ 13.3 µM) | 32 µg/mL | >128 µg/mL | >128 µg/mL | 32 µg/mL | >128 µg/mL | >128 µg/mL | 16 µg/mL | 64 µg/mL | 128 µg/mL | 4 µg/mL | 32 µg/mL | 32 µg/mL | 1 µg/mL | 16 µg/mL | 16 µg/mL | 0.25 µg/mL | 4 µg/mL | 8 µg/mL | 0 µg/mL | Linezolid MIC during combined treatment with peptide (MDRAB 12035 [1]; [10]): 0 µg/mL; Vancomycin MIC during combined treatment with peptide (MDRAB 12035 [1]; [10]): 0 µg/mL; Erythromycin MIC during combined treatment with peptide (MDRAB 12035 [1]; [11]): 0 µg/mL; Linezolid MIC during combined treatment with peptide (MDRAB 12035 [1]; [11]): 0 µg/mL; Vancomycin MIC during combined treatment with peptide (MDRAB 12035 [1]; [11]): 0 µg/mL; Minimal inhibitory concentration MIC (S. epidermidis): >128 µg/mL; Minimal inhibitory concentration MIC (S. typhimurium): 32 µg/mL (≈ 13.3 µM); Minimal inhibitory concentration MIC (MDRPA 2003): 64 µg/mL (≈ 26.6 µM); Minimal inhibitory concentration MIC (MDRPA 2002): 64 µg/mL (≈ 26.6 µM); Minimal inhibitory concentration MIC (P. aeruginosa): 64 µg/mL (≈ 26.6 µM); Minimal inhibitory concentration MIC (MDRST 8009): 32 µg/mL (≈ 13.3 µM); Minimal inhibitory concentration MIC (A. baumannii): 32 µg/mL (≈ 13.3 µM); Peptide MIC, peptide alone (A. baumannii): 32 µg/mL; Antibacterial activity relative to PapMA-1 (A. baumannii): at least twice as high; Minimal inhibitory concentration MIC (MDRAB 12035 [2]): 32 µg/mL (≈ 13.3 µM); Peptide MIC, peptide alone (MDRAB 12035 [2]): 32 µg/mL; Antibacterial activity relative to PapMA-1 [3]: twice to four times higher; Minimal inhibitory concentration MIC (MRSA 3114): >128 µg/mL; Minimal inhibitory concentration MIC (MRSA 3126): >128 µg/mL
2 | CC[C@H](C)[C@H](NC(=O)[C@H](CCCCN)NC(=O)[C@H](Cc1c[nH]c2ccccc12)NC(=O)[C@@H](N)CCCNC(=N)N)C(=O)N[C@@H](Cc1ccccc1)C(=O)N[C@@H](CCCCN)C(=O)N[C@@H](CCCCN)C(=O)N[C@H](C(=O)N[C@H](CC(C)C)C(=O)N[C@@H](CCCCN)C(=O)N[C@@H](CC(C)C)C(=O)N[C@@H](CC(C)C)C(=O)N[C@@H](Cc1c[nH]cn1)C(=O)N[C@@H](CCC(=O)O)C(=O)N[C@@H](C)C(=O)N[C@@H](CCCCN)C(=O)N[C@@H](CCCCN)C(=O)N[C@@H](Cc1c[nH]c2ccccc12)C(N)=O)[C@@H](C)CC [PapMA-24, RWK IFK KIl KLL HEA KKW-NH2] (H-RWKIFKKI[dL]KLLHEAKKW-NH2; N-terminus assumed) | 32 µg/mL (≈ 13.5 µM) | 32 µg/mL | >128 µg/mL | >128 µg/mL | 32 µg/mL | >128 µg/mL | >128 µg/mL | 16 µg/mL | 64 µg/mL | 64 µg/mL | 2 µg/mL | 16 µg/mL | 32 µg/mL | 1 µg/mL | 8 µg/mL | 16 µg/mL | 0.25 µg/mL | 4 µg/mL | 8 µg/mL | 0 µg/mL | Linezolid MIC during combined treatment with peptide (MDRAB 12035 [1]; [10]): 0 µg/mL; Vancomycin MIC during combined treatment with peptide (MDRAB 12035 [1]; [10]): 0 µg/mL; Erythromycin MIC during combined treatment with peptide (MDRAB 12035 [1]; [11]): 0 µg/mL; Linezolid MIC during combined treatment with peptide (MDRAB 12035 [1]; [11]): 0 µg/mL; Vancomycin MIC during combined treatment with peptide (MDRAB 12035 [1]; [11]): 0 µg/mL; Minimal inhibitory concentration MIC (S. epidermidis): >128 µg/mL; Minimal inhibitory concentration MIC (S. typhimurium): 32 µg/mL (≈ 13.5 µM); Minimal inhibitory concentration MIC (MDRPA 2003): 64 µg/mL (≈ 27.1 µM); Minimal inhibitory concentration MIC (MDRPA 2002): 64 µg/mL (≈ 27.1 µM); Minimal inhibitory concentration MIC (P. aeruginosa): 64 µg/mL (≈ 27.1 µM); Minimal inhibitory concentration MIC (MDRST 8009): 32 µg/mL (≈ 13.5 µM); Minimal inhibitory concentration MIC (A. baumannii): 16 µg/mL (≈ 6.77 µM); Peptide MIC, peptide alone (A. baumannii): 16 µg/mL; Antibacterial activity relative to PapMA-1 (A. baumannii): at least twice as high; Minimal inhibitory concentration MIC (MDRAB 12035 [2]): 32 µg/mL (≈ 13.5 µM); Peptide MIC, peptide alone (MDRAB 12035 [2]): 32 µg/mL; Antibacterial activity relative to PapMA-1 [3]: twice to four times higher; Minimal inhibitory concentration MIC (MRSA 3114): >128 µg/mL; Minimal inhibitory concentration MIC (MRSA 3126): >128 µg/mL
